ChEMBL document CHEMBL1143554, “4-phenoxypiperidines: potent, conformationally restricted, non-imidazole histamine H3 antagonists” (J Med Chem, 2005)

Tests used:
[1] = biological target: T1, Histamine H3 receptor (Homo sapiens, UniProt Q9Y5N1); experiment: Mean functional activity against human H3 receptor; details: read-out: pA2 (converted)
[2] = biological target: T1, Histamine H3 receptor; experiment: Mean binding affinity for human H3 receptor

T1 sequence (Q9Y5N1 whole entry): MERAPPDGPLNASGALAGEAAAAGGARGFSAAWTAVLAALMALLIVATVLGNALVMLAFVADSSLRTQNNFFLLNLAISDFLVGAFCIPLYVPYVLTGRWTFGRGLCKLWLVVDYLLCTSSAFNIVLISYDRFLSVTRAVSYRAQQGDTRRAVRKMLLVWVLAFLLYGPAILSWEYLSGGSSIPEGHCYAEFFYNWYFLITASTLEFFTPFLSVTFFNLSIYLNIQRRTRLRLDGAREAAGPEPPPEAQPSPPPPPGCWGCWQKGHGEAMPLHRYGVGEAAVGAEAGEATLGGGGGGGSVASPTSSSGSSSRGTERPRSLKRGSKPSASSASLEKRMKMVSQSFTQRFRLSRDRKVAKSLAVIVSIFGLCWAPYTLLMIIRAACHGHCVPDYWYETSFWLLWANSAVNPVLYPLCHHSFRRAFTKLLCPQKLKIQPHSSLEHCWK

Row | SMILES | Kb [1] [nM] | Ki [2] [nM]
1 | CCN(CC)Cc1ccc(OC2CCN(C(C)C)CC2)cc1 | 0.468 | 1.23
2 | CC(C)N1CCC(Oc2ccc(CN(C)C)cc2)CC1 | 1.17 | 3.02
3 | CC(C)N1CCC(Oc2ccc(CN(C)CCN(C)C)cc2)CC1 | 0.214 | 1.15
4 | CCN1CCC(Oc2ccc(C#N)cc2)CC1 |  | 81.3
5 | CC(C)CN1CCC(Oc2ccc(C#N)cc2)CC1 |  | 66.1
6 | CCCN1CCC(Oc2ccc(C#N)cc2)CC1 |  | 107
7 | CC(CO)N1CCC(Oc2ccc(C#N)cc2)CC1 (stereo not given) |  | 759
8 | CC(C)N1CCC(Oc2ccc(CN3CCN(c4ccccc4)CC3)cc2)CC1 | 1.02 | 2
9 | N#Cc1ccc(OC2CCNCC2)cc1 |  | > 10000
10 | CC(C)N1CCC(Oc2ccc(CN3CCC(O)CC3)cc2)CC1 | 0.331 | 1.41
11 | N#Cc1ccc(OC2CCN(C3CCCCC3)CC2)cc1 |  | 32.4
12 | CC(C)N1CCC(Oc2ccc(CN3CCN(Cc4ccccc4)CC3)cc2)CC1 | 0.661 | 2
13 | CC(C)N1CCC(Oc2ccc(CN3CCCCC3)cc2)CC1 | 0.126 | 0.631
14 | CC(C)N1CCC(Oc2ccc(CN3CCC(CO)CC3)cc2)CC1 | 0.257 | 1
15 | CC(C)N1CCC(Oc2ccc(CNc3ccccc3)cc2)CC1 | 2.69 | 5.5
16 | CC(C)N1CCC(Oc2ccc(CN3CCC(Cc4ccccc4)CC3)cc2)CC1 | 0.813 | 1.45
17 | C[C@@H]1CCCN1CCc1cc2cc(C#N)ccc2o1 |  | 0.447
18 | N#Cc1ccc(OCCCCCN2CCCC2)cc1 |  | 19.1
19 | CCC(C)N1CCC(Oc2ccc(C#N)cc2)CC1 (stereo not given) |  | 15.1
20 | Cc1ccc2nc(-c3ccc(OCCCN4CCCCC4)cc3)cn2c1 | 2.04 | 
21 | CC(C)N1CCC(Oc2ccc(CN3CCCN(C)CC3)cc2)CC1 | 0.324 | 1
22 | CC(C)N1CCC(Oc2ccc(CNC3CC3)cc2)CC1 | 0.457 | 1.62
23 | CCC(CC)N1CCN(C(=O)CCC(=O)c2ccc(Cl)cc2)CC1 |  | 0.871
24 | CC(C)N1CCC(Oc2ccc(CN3CCCC3)cc2)CC1 | 0.355 | 1.95
25 | CC(C)N1CCC(Oc2ccc(CN3CCN(C)CC3)cc2)CC1 | 0.257 | 0.741
26 | CC(C)N1CCC(Oc2ccc(CNc3ccccn3)cc2)CC1 | 0.741 | 2.24
27 | CC(C)N1CCC(Oc2ccc(CN3CCCCCC3)cc2)CC1 | 0.174 | 1.7
28 | CCCCN(C)Cc1ccc(OC2CCN(C(C)C)CC2)cc1 | 0.339 | 1.48
